Assay results reported in PubChem BioAssay (NCI).
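A five-concentration, 48-hour dose response in 96-well plates underlies each endpoint, interpolated linearly between surrounding concentrations. At the GI50, growth is halved. Definition used: TGI = concentration required for complete inhibition of growth.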

How the values were obtained:
Assay in all cases: NCI anticancer screen, dose series, 48 h
[1] = tested on: OVCAR-5 ovarian
[2] = tested on: SN12C renal
[3] = tested on: IGROV1 ovarian
[4] = tested on: EKVX NSCLC
[5] = tested on: SK-MEL-5 melanoma
[6] = tested on: HT29 colon
[7] = tested on: A549 NSCLC
[8] = tested on: SF-268 CNS
[9] = tested on: M14 melanoma
[10] = tested on: NCI/ADR-RES ovarian

| SMILES | TGI [1] | TGI [2] | TGI [3] | TGI [4] | TGI [5] | TGI [6] | TGI [7] | TGI [8] | TGI [9] | GI50 [1] | GI50 [5] | GI50 [9] | GI50 [10] | TGI [10] | GI50 [6] | GI50 [2] | GI50 [3] | GI50 [4] | GI50 [7] | GI50 [8] |
| --- | --- | --- | --- | --- | --- | --- | --- | --- | --- | --- | --- | --- | --- | --- | --- | --- | --- | --- | --- | --- |
| COc1ccccc1/C=N/N=C(\N)NO | 24.3 µM | > 100 µM | > 100 µM | > 100 µM | 25.6 µM | > 100 µM | 81.1 µM | > 100 µM |  |  |  |  |  |  |  |  |  |  |  |  |
| Clc1ccc(SCCCCCCCCCCSc2ccc(Cl)cc2)cc1 | > 78.3 µM | > 100 µM | > 100 µM | > 96.6 µM | > 69.3 µM | > 100 µM | > 100 µM | > 100 µM | > 100 µM |  |  |  |  |  |  |  |  |  |  |  |
| COc1cc([N+](=O)[O-])c(OC)cc1-c1nc2sc(Cl)cn2c1/C=N/NC(=N)N/N=C/c1c(-c2cc(OC)c([N+](=O)[O-])cc2OC)nc2sc(Cl)cn12 | 3.16 µM |  |  |  | 3.12 µM | > 100 µM |  |  | 3.36 µM | 1.71 µM | 1.66 µM | 1.91 µM | > 100 µM | > 100 µM | 3.78 µM |  |  |  |  |  |
| N#CC(C#N)=C1SCC(=O)CS1 | > 100 µM | > 100 µM | > 100 µM | > 100 µM | > 100 µM | > 100 µM | > 100 µM | > 100 µM | > 100 µM |  |  |  |  |  |  |  |  |  |  |  |
| C/C(=N\O)C(CN1CCCCC1)C(c1ccccc1)c1c(O)c2ccccc2oc1=O (stereo unspecified) | > 100 µM | > 100 µM | > 100 µM | > 100 µM | > 100 µM | > 100 µM | > 100 µM | > 100 µM | > 100 µM |  |  |  |  |  |  |  |  |  |  |  |
| C=C(C)[C@H](O)C(O)CC(C)[C@@H]1CCC23CC12CCC1[C@@]2(C)CCC(OC(C)=O)C(C)(C)C2CC(OC2OC(COC(C)=O)C(O)C(O)C2O)[C@]13C (stereo partly specified) | 13.9 µM | 13 µM | 9.54 µM | 12.7 µM |  | 8.77 µM | 12.2 µM | 11 µM | 9.11 µM |  |  |  |  |  |  |  |  |  |  |  |
| Cc1cccc2c1C/C(=C1\CCc3c(C)cccc31)C2=O | > 100 µM | > 100 µM | > 100 µM | > 100 µM | > 100 µM | > 100 µM | > 100 µM | > 100 µM | > 100 µM |  |  |  |  |  |  |  |  |  |  |  |
| COc1cc(C(=O)CC2(O)C(=O)Nc3c(Cl)cc(Cl)cc32)ccc1O (stereo unspecified) | > 100 µM | > 100 µM |  | > 100 µM | > 100 µM | > 100 µM | > 100 µM | > 100 µM | > 100 µM |  |  |  |  |  |  |  |  |  |  |  |
| O=C(/C=C1/NC(=O)CS1)Nc1ccccc1 | > 100 µM | > 100 µM | > 100 µM | > 100 µM | > 100 µM | > 100 µM | > 100 µM | > 100 µM | > 100 µM |  |  |  |  |  |  |  |  |  |  |  |
| C[CH2][Sn]([Cl])([Cl])[CH2]C | > 100 µM | > 78.6 µM | > 100 µM | > 100 µM | > 100 µM | > 100 µM | > 100 µM | 79.1 µM | 57.7 µM | > 100 µM | 45.5 µM | 24.1 µM |  |  | 55.2 µM | 35.1 µM | > 100 µM | > 65.6 µM | > 100 µM | 29.7 µM |
| CC(=O)c1c[nH]cc1CO | > 10 µM | > 10 µM | > 10 µM |  | > 10 µM |  | > 10 µM | > 10 µM | > 10 µM |  |  |  |  | > 10 µM |  |  |  |  |  |  |
| CN1CCn2c(c(Sc3ccc(C(=O)NO)cc3)c3ccccc32)C1=O | 5.67 µM | 5.58 µM | 3.85 µM |  | 3.15 µM | 9.38 µM | 13 µM | 3.85 µM | 3.99 µM | 2 µM | 1.7 µM | 1.77 µM | 8.82 µM | > 87.1 µM | 2.92 µM | 2.13 µM | 1.82 µM |  | 3.45 µM | 1.92 µM |
| N#CC(NNC(=O)c1ccccc1O)c1ccccc1 (stereo unspecified) | > 100 µM | > 100 µM | > 100 µM |  | > 100 µM | > 100 µM | > 100 µM | > 100 µM | > 100 µM |  |  |  |  |  |  |  |  |  |  |  |
| Cc1cccc2c1C(=O)OC2(C)c1cccc2ccccc12 (stereo unspecified) | > 100 µM | 56 µM |  | > 100 µM | 45.3 µM | > 100 µM | > 100 µM | > 100 µM | 40.7 µM |  |  |  |  |  |  |  |  |  |  |  |
| NC(CCSC(F)F)C(=O)O (stereo unspecified) | > 100 µM | > 100 µM | > 100 µM | > 100 µM | > 100 µM | > 100 µM | > 100 µM | > 100 µM | > 100 µM |  |  |  |  |  |  |  |  |  |  |  |
| COc1ccc2c(c1)CC1c3c(cc4c(c3-2)OCO4)CCN1C (stereo unspecified) | > 100 µM | > 100 µM | 85.8 µM | 81.5 µM | 30.6 µM | > 100 µM | 61 µM |  | 62.9 µM |  |  |  |  |  |  |  |  |  |  |  |
| COc1cc([C@@H]2OC(=O)C3C2C(=O)O[C@H]3c2cc(OC)c(OC)c(OC)c2)cc(OC)c1OC (stereo partly specified) |  | > 100 µM | > 100 µM | > 100 µM | > 100 µM | > 100 µM | > 100 µM | > 100 µM | > 100 µM |  |  |  |  |  |  |  |  |  |  |  |
| O=C1CCCC1NC(=O)C(F)(F)F (stereo unspecified) | > 100 µM | > 100 µM | > 100 µM | > 100 µM | > 100 µM | > 100 µM | > 100 µM | > 100 µM | > 100 µM |  |  |  |  |  |  |  |  |  |  |  |
| COC1=CC(=O)[C@]2(C)[C@H](C1=O)C(C)[C@H]2c1ccccc1 (stereo partly specified) | > 100 µM |  | > 100 µM | > 100 µM | > 100 µM | > 100 µM | > 100 µM | > 100 µM | > 100 µM |  |  |  |  |  |  |  |  |  |  |  |
| Cc1ccc(N2C(=O)/C(=C/c3ccc(N(CCC#N)CCC#N)cc3C)N=C2c2cc([N+](=O)[O-])ccc2Cl)cc1 | > 100 µM | > 100 µM | > 100 µM |  | > 100 µM | > 100 µM | > 100 µM | > 100 µM | > 100 µM |  |  |  |  |  |  |  |  |  |  |  |
| CC1=NN(C(=O)c2ccc(Cl)cc2)C(=O)/C1=C/c1ccc(O)cc1 | > 100 µM | > 100 µM | > 100 µM | > 100 µM | > 100 µM | > 100 µM | > 100 µM | > 100 µM | > 100 µM |  |  |  |  |  |  |  |  |  |  |  |
| Cc1ccc(S(=O)(=O)c2c3[nH]c4ccccc4nc3n3c2nc2ccccc23)cc1 | > 100 µM | > 100 µM | > 100 µM | > 100 µM | > 100 µM |  | > 100 µM | > 100 µM | > 100 µM |  |  |  |  |  |  |  |  |  |  |  |
